# Assay results published in the supplement of paper PMC10307832.
# Tests used:
# Test in all cases: relative viability (nuclei count vs DMSO), 5 days (fraction); higher = more cells survive
# [1] = compound: C/C(=N\NC(=S)N1CCC1)/C2=CC=CC=N2 + O=C(c1cc(Cc2n[nH]c(=O)c3ccccc23)ccc1F)N1CCN(C(=O)C2CC2)CC1 [Olaparib] (partner 8 µM)
# Outline: (§1)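 Relative viability equals treated-well nuclei counts divided by vehicle-well nuclei counts. Counts came from 4× images of lung cancer cell lines grown in 1536-well plates for 5 days after pin-tool dosing on the day after seeding. Dosing used one drug alone or a fixed anchor-drug dose plus five library-drug doses (not always all listed) in √10 steps, and values are medians of duplicate plates.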
# [2] = compound: C/C(=N\NC(=S)N1CCC1)/C2=CC=CC=N2 + N=C(N)NC(=N)NCCc1ccccc1 [Phenformin] (partner 250 µM)
# Outline: as §1
# [3] = compound: C/C(=N\NC(=S)N1CCC1)/C2=CC=CC=N2 + CS(=O)(=O)CCNCc1ccc(-c2ccc3ncnc(Nc4ccc(OCc5cccc(F)c5)c(Cl)c4)c3c2)o1 [Lapatinib] (partner 2 µM)
# Outline: as §1
# [4] = compound: C/C(=N\NC(=S)N1CCC1)/C2=CC=CC=N2 + CC(=O)Nc1cccc(-n2c(=O)n(C3CC3)c(=O)c3c(Nc4ccc(I)cc4F)n(C)c(=O)c(C)c32)c1 [Trametinib] (partner 0.02 µM)
# Outline: as §1
Cell Line,relative viability ([1]; first compound 0.05 µM),relative viability ([1]; first compound 0.1581 µM),relative viability ([1]; first compound 0.5 µM),relative viability ([1]; first compound 1.581 µM),relative viability ([1]; first compound 5 µM),relative viability ([2]; first compound 0.05 µM),relative viability ([2]; first compound 0.1581 µM),relative viability ([2]; first compound 0.5 µM),relative viability ([2]; first compound 1.581 µM),relative viability ([2]; first compound 5 µM),relative viability ([3]; first compound 0.05 µM),relative viability ([3]; first compound 0.1581 µM),relative viability ([3]; first compound 0.5 µM),relative viability ([3]; first compound 1.581 µM),relative viability ([3]; first compound 5 µM),relative viability ([4]; first compound 0.05 µM),relative viability ([4]; first compound 0.1581 µM),relative viability ([4]; first compound 0.5 µM),relative viability ([4]; first compound 1.581 µM),relative viability ([4]; first compound 5 µM)
NCI-H661,0.244,0.239,0.202,0.243,0.219,0.262,0.269,0.254,0.211,0.231,0.187,0.184,0.2,0.201,0.198,0.208,0.263,0.26,0.224,0.213
NCI-H1993,0.418,0.426,0.355,0.334,0.431,0.524,0.495,0.627,0.581,0.526,0.59,0.634,0.619,0.58,0.543,0.402,0.374,0.438,0.351,0.45
NCI-H1437,0.226,0.213,0.235,0.143,0.119,0.132,0.182,0.182,0.162,0.159,0.127,0.128,0.109,0.0868,0.0855,0.23,0.241,0.194,0.16,0.208
UMC-11,0.163,0.122,0.137,0.131,0.106,0.202,0.19,0.207,0.185,0.168,0.201,0.195,0.165,0.145,0.134,0.164,0.164,0.159,0.113,0.129
201T,0.487,0.871,0.349,0.241,0.247,0.362,0.355,0.343,0.311,0.247,0.447,0.578,0.444,0.447,0.351,0.575,0.713,0.327,0.407,0.283
NCI-H358,0.0853,0.0833,0.0714,0.0722,0.067,0.0917,0.112,0.101,0.0719,0.107,0.233,0.247,0.244,0.193,0.199,0.1,0.0969,0.116,0.0973,0.097
NCI-H1650,0.13,0.158,0.125,0.166,0.152,0.122,0.16,0.194,0.14,0.18,0.257,0.204,0.192,0.267,0.199,0.131,0.176,0.143,0.177,0.146
LOU-NH91,0.482,0.562,0.458,0.44,0.451,0.371,0.403,0.352,0.262,0.419,0.399,0.434,0.487,0.383,0.357,0.632,0.6,0.583,0.512,0.452
HOP-62,0.079,0.0776,0.0561,0.0753,0.0802,0.0721,0.0624,0.0719,0.0958,0.0779,0.0752,0.0868,0.0479,0.0716,0.0698,0.216,0.212,0.112,0.131,0.112
NCI-H1915,0.155,0.12,0.127,0.122,0.137,0.253,0.231,0.221,0.178,0.179,0.195,0.182,0.157,0.136,0.133,0.0702,0.0677,0.0851,0.0919,0.112
NCI-H3122,0.118,0.291,0.0987,0.145,0.142,0.0982,0.0876,0.119,0.128,0.124,0.304,0.284,0.268,0.291,0.243,0.0866,0.159,0.0947,0.116,0.125
NCI-H1651,0.125,0.117,0.121,0.122,0.0747,0.176,0.169,0.185,0.0924,0.0954,0.117,0.119,0.131,0.0681,0.0861,0.209,0.156,0.137,0.102,0.0667
NCI-H838,0.184,0.173,0.186,0.159,0.13,0.163,0.171,0.175,0.123,0.139,0.185,0.186,0.212,0.149,0.164,0.156,0.167,0.157,0.11,0.136
NCI-H596,0.616,0.391,0.347,0.31,0.292,0.301,0.391,0.324,0.239,0.259,0.339,0.293,0.221,0.228,0.299,0.613,0.296,0.293,0.201,0.239
SK-LU-1,0.162,0.175,0.22,0.135,0.15,0.124,0.152,0.174,0.104,0.123,0.301,0.149,0.14,0.142,0.204,0.294,0.278,0.254,0.191,0.258
NCI-H650,0.135,0.151,0.147,0.114,0.138,0.23,0.277,0.208,0.247,0.189,0.174,0.294,0.23,0.168,0.203,0.17,0.207,0.204,0.169,0.151
SK-MES-1,0.198,0.213,0.162,0.174,0.164,0.219,0.233,0.197,0.175,0.173,0.301,0.293,0.213,0.185,0.2,0.277,0.236,0.245,0.213,0.246

Cell Line,relative viability ([1]; first compound 0.05 µM),relative viability ([1]; first compound 0.1581 µM),relative viability ([1]; first compound 0.5 µM),relative viability ([1]; first compound 1.581 µM),relative viability ([1]; first compound 5 µM),relative viability ([2]; first compound 0.05 µM),relative viability ([2]; first compound 0.1581 µM),relative viability ([2]; first compound 0.5 µM),relative viability ([2]; first compound 1.581 µM),relative viability ([2]; first compound 5 µM),relative viability ([3]; first compound 0.05 µM),relative viability ([3]; first compound 0.1581 µM),relative viability ([3]; first compound 0.5 µM),relative viability ([3]; first compound 1.581 µM),relative viability ([3]; first compound 5 µM),relative viability ([4]; first compound 0.05 µM),relative viability ([4]; first compound 0.1581 µM),relative viability ([4]; first compound 0.5 µM),relative viability ([4]; first compound 1.581 µM),relative viability ([4]; first compound 5 µM)
NCI-H1792,0.228,0.107,0.0578,0.134,0.101,0.122,0.096,0.108,0.063,0.0674,0.371,0.38,0.179,0.193,0.104,0.415,0.101,0.0783,0.0869,0.0954
NCI-H1355,0.22,0.179,0.171,0.175,0.142,0.266,0.295,0.251,0.263,0.2,0.203,0.238,0.205,0.167,0.18,0.22,0.191,0.136,0.176,0.17
SW 1573,0.0806,0.0899,0.138,0.0631,0.0687,0.0755,0.0616,0.0965,0.0629,0.0599,0.164,0.17,0.182,0.118,0.109,0.0975,0.0992,0.119,0.0672,0.0635
NCI-H2347,0.334,0.294,0.298,0.274,0.28,0.159,0.195,0.202,0.208,0.273,0.401,0.394,0.324,0.294,0.541,0.247,0.271,0.244,0.294,0.227
LCLC-97TM1,0.0715,0.422,0.0519,0.0494,0.0514,0.128,0.189,0.109,0.166,0.139,0.0934,0.101,0.0997,0.0662,0.107,0.0885,0.152,0.0765,0.0664,0.0773
EMC-BAC-2,0.188,0.22,0.195,0.164,0.203,0.156,0.233,0.214,0.211,0.212,0.113,0.169,0.178,0.173,0.153,0.293,0.282,0.246,0.2,0.231
NCI-H1975,0.111,0.113,0.118,0.111,0.133,0.187,0.187,0.159,0.12,0.133,0.132,0.151,0.147,0.13,0.15,0.143,0.118,0.105,0.109,0.119
BEN,0.292,0.259,0.271,0.272,0.283,0.155,0.16,0.178,0.232,0.201,0.178,0.201,0.21,0.203,0.188,0.341,0.344,0.359,0.3,0.268
NCI-H23,0.129,0.101,0.0966,0.0889,0.111,0.144,0.164,0.185,0.117,0.139,0.169,0.168,0.171,0.151,0.166,0.119,0.137,0.121,0.0972,0.128
NCI-H520,0.122,0.131,0.125,0.106,0.143,0.149,0.255,0.168,0.143,0.251,0.131,0.148,0.12,0.12,0.144,0.101,0.129,0.118,0.123,0.159
CAL-12T,0.16,0.149,0.185,0.171,0.131,0.171,0.15,0.136,0.112,0.101,0.259,0.214,0.2,0.182,0.187,0.0974,0.126,0.163,0.135,0.122
EPLC-272H,0.114,0.13,0.0724,0.0602,0.131,0.112,0.13,0.084,0.0614,0.122,0.139,0.195,0.229,0.155,0.161,0.121,0.114,0.114,0.0558,0.0892
NCI-H2405,0.259,0.272,0.268,0.252,0.208,0.21,0.235,0.24,0.199,0.262,0.251,0.236,0.263,0.25,0.281,0.236,0.278,0.24,0.239,0.3
HCC-15,0.299,0.259,0.103,0.102,0.101,0.0651,0.134,0.144,0.0712,0.0989,0.082,0.078,0.0841,0.0904,0.0765,0.151,0.23,0.117,0.0989,0.0939
PC-3 [JPC-3],0.581,0.506,0.432,0.382,0.351,0.332,0.342,0.334,0.277,0.195,0.267,0.27,0.259,0.228,0.229,0.402,0.409,0.318,0.357,0.342
NCI-H1944,0.27,0.426,0.14,0.136,0.138,0.119,0.144,0.127,0.145,0.146,0.194,0.317,0.207,0.144,0.163,0.32,0.392,0.144,0.147,0.152
